Results published in patent publication EP0672419A1, “BLOOD PRESSURE REGULATOR” (Asahi Kasei Kogyo Kabushiki Kaisha, priority 1991, dated 1995).

Tested on: Adult mongrel dog
Assay: Induced hypotension in halothane-anesthetized dog, mean arterial pressure kept at 50 mmHg for 60 min (Example 5)
Assay type: in vivo
Method: Adult mongrel dog, mean body weight 12.7 ± 3.1 kg, was anesthesized with pentobarbital 25 mg/kg, intratarcheally cannulated and maintained anesthetic condition by 0.87% halothane-oxygen (1 MAC, minimum anesthetic concentration). Respiration was controlled, by using respirator (Harvard Corp., Model 613E ) at Paco₂ 35±5 mmHg.
Catheters were introduced to right femoral vein and artery for monitering arterial blood pressure, arterial blood gas analysis and infusion, and left cardiac catheter was introduced to left femoral […] to monitor left ventricular pressure. The changes in left ventricular pressure were differentiated continuously using a pressure processor (Nihon Koden Co., EQ-601G) to measure a maximum left ventricular systolic ratio (LV dp/dt max). The active ingredient of the present invention was administered to left femoral vein. Pulmonary arterial catheter (7F, Swan-Ganz® catheter) was introduced through right external jugular vein to monitor pulmonary artery pressure (PAP), paulmonary arterial wedge pressure (pulmonary capillary wedge pressure, PCWP) and cardiac output (CO). Pressure was monitored by using disporsable pressure monitoring kit (Gould Corp.), and electrocardiogram, arteriala pressure, left ventricle pressure (LVP) and maximum left ventricular systolic ratio (LV dp/dt max) were monitored by polygraph (Nihon Koden Co.) . Cardiac output (CO) was measured by thermal dilution method using cardiac output monitor (Nihon Koden Co Model MTC6210). Blood gas analysis was made by using automatic blood gas analyser (Radiometer Corp. ABL3). Mean artery pressure (MAP), cardiac index(CI) stroke volume index (SI), systemic vascular resistance (SVR), pulmonary vascular resistance (PVR), left ventricle stroke work index (LVSWI) and coronary perfusion pressure (CPP) were calculated by standard calculation equations, respectively.
To maintain low blood pressure, the active ingredient was intraveneously administered for 60 minutes with maintaining maximum dose at 40 µg/kg and adjusting to maintain mean arteraial pressure at 50 mmHg. Physiological saline was used for maintenance infusion and administered in combination with the active ingredient at 7 ml/kg/hr. At blood sampling two fold volume of hydroxyethylstarch (6-HES) was supplementary administered. Body temperature was maintained at 37 ± 1°C by covering with blanket.
A value at time are than 60 minutes passed after completing the start of the experiment and stabilizing a depth of anesthesia and blood flow, is set as control (S₁). Monitorings were performed at 5 min., 30 min. and 60 min. under reduced blood pressure in induced hypotension, and at 10 min., 30 min. and 60 min. after terminating the reduced blood pressure in induced hypotension (after stopping administration), for totally seven points of time.

[1] = after administration 5min., i.v., MAP kept at 50 mmHg
[2] = after administration 30min., i.v., MAP kept at 50 mmHg
[3] = after administration 60min., i.v., MAP kept at 50 mmHg
[4] = after terminating administration 10min.
[5] = after terminating administration 30min.
[6] = after terminating administration 60min.

Substance: desalanyl-deamino-c-CGRP
- CI: Cardiac index [1]: 4.65 1/min/m²
- CO: Cardiac output [1]: 3.67 min⁻¹
- CPP: Coronary perfusion pressure [1]: 45 mmHg
- CVP: Central venous pressure [1]: 4 mmHg
- DAP: Diastolic artery pressure [1]: 50 mmHg
- DPAP: Diastolic pulmonary artery pressure [1]: 7 mmHg
- EtCO₂: Expiration terminal CO₂ pressure [1]: 37 mmHg
- HR: Heart rate [1]: 143 beat/min
- LV dp/dt max: maximum left ventricular systolic ratio [1]: 3000 mmHg/sec
- LVEP: Left ventricle end pressure [1]: 0 mmHg
- LVP: Left ventricle pressure [1]: 102 mmHg
- LVSWI: Left ventricle stroke work index [1]: 26.5 g.m/beat/m²
- MAP: Mean artery pressure [1]: 65 mmHg
- MPAP: Mean pulmonary artery pressure [1]: 16 mmHg
- PCWP: Pulmonary capillary wedge pressure [1]: 5 mmHg
- PVR: Pulmonary vascular resistance [1]: 255 dynes · sec/cm⁵
- RPP: Rate pressure products [1]: 13200 mmHg.beat/min
- RVSWI: Right ventricle stroke work index [1]: 5.30 g.m/beat/m²
- SAP: Systolic artery pressure [1]: 93 mmHg
- SI: Stroke index [1]: 32.5 ml/HR/m²
- SPAP: Systolic pulmonary artery pressure [1]: 29 mmHg
- SV: Stroke volumes [1]: 24 mL/beat
- SVR: Systemic vascular resistance [1]: 1410 dynes · sec/cm⁵
- CI: Cardiac index [2]: 4.24 1/min/m²
- CO: Cardiac output [2]: 3.40 min⁻¹
- CPP: Coronary perfusion pressure [2]: 29 mmHg
- CVP: Central venous pressure [2]: 4 mmHg
- DAP: Diastolic artery pressure [2]: 34 mmHg
- DPAP: Diastolic pulmonary artery pressure [2]: 5 mmHg
- EtCO₂: Expiration terminal CO₂ pressure [2]: 35 mmHg
- HR: Heart rate [2]: 132 beat/min
- LV dp/dt max: maximum left ventricular systolic ratio [2]: 2600 mmHg/sec
- LVEP: Left ventricle end pressure [2]: 0 mmHg
- LVP: Left ventricle pressure [2]: 86 mmHg
- LVSWI: Left ventricle stroke work index [2]: 19.7 g.m/beat/m²
- MAP: Mean artery pressure [2]: 50 mmHg
- MPAP: Mean pulmonary artery pressure [2]: 12 mmHg
- PCWP: Pulmonary capillary wedge pressure [2]: 5 mmHg
- PVR: Pulmonary vascular resistance [2]: 177 dynes · sec/cm⁵
- RPP: Rate pressure products [2]: 7650 mmHg.beat/min
- RVSWI: Right ventricle stroke work index [2]: 3.50 g.m/beat/m²
- SAP: Systolic artery pressure [2]: 58 mmHg
- SI: Stroke index [2]: 32.2 ml/HR/m²
- SPAP: Systolic pulmonary artery pressure [2]: 24 mmHg
- SV: Stroke volumes [2]: 23.8 mL/beat
- SVR: Systemic vascular resistance [2]: 1160 dynes · sec/cm⁵
- CI: Cardiac index [3]: 4.95 1/min/m²
- CO: Cardiac output [3]: 3.75 min⁻¹
- CPP: Coronary perfusion pressure [3]: 37 mmHg
- CVP: Central venous pressure [3]: 4 mmHg
- DAP: Diastolic artery pressure [3]: 43 mmHg
- DPAP: Diastolic pulmonary artery pressure [3]: 7 mmHg
- EtCO₂: Expiration terminal CO₂ pressure [3]: 34 mmHg
- HR: Heart rate [3]: 138 beat/min
- LV dp/dt max: maximum left ventricular systolic ratio [3]: 2600 mmHg/sec
- LVEP: Left ventricle end pressure [3]: 0 mmHg
- LVP: Left ventricle pressure [3]: 95 mmHg
- LVSWI: Left ventricle stroke work index [3]: 23.4 g.m/beat/m²
- MAP: Mean artery pressure [3]: 50 mmHg
- MPAP: Mean pulmonary artery pressure [3]: 15 mmHg
- PCWP: Pulmonary capillary wedge pressure [3]: 6 mmHg
- PVR: Pulmonary vascular resistance [3]: 196 dynes · sec/cm⁵
- RPP: Rate pressure products [3]: 8000 mmHg.beat/min
- RVSWI: Right ventricle stroke work index [3]: 5.37 g.m/beat/m²
- SAP: Systolic artery pressure [3]: 58 mmHg
- SI: Stroke index [3]: 35.9 ml/HR/m²
- SPAP: Systolic pulmonary artery pressure [3]: 27 mmHg
- SV: Stroke volumes [3]: 26.5 mL/beat
- SVR: Systemic vascular resistance [3]: 1090 dynes · sec/cm⁵
- CI: Cardiac index [4]: 4.33 1/min/m²
- CO: Cardiac output [4]: 3.33 min⁻¹
- CPP: Coronary perfusion pressure [4]: 41 mmHg
- CVP: Central venous pressure [4]: 4 mmHg
- DAP: Diastolic artery pressure [4]: 49 mmHg
- DPAP: Diastolic pulmonary artery pressure [4]: 7 mmHg
- EtCO₂: Expiration terminal CO₂ pressure [4]: 32 mmHg
- HR: Heart rate [4]: 136 beat/min
- LV dp/dt max: maximum left ventricular systolic ratio [4]: 3000 mmHg/sec
- LVEP: Left ventricle end pressure [4]: 0 mmHg
- LVP: Left ventricle pressure [4]: 110 mmHg
- LVSWI: Left ventricle stroke work index [4]: 21.7 g.m/beat/m²
- MAP: Mean artery pressure [4]: 58 mmHg
- MPAP: Mean pulmonary artery pressure [4]: 15 mmHg
- PCWP: Pulmonary capillary wedge pressure [4]: 8 mmHg
- PVR: Pulmonary vascular resistance [4]: 174 dynes · sec/cm⁵
- RPP: Rate pressure products [4]: 9240 mmHg.beat/min
- RVSWI: Right ventricle stroke work index [4]: 4.77 g.m/beat/m²
- SAP: Systolic artery pressure [4]: 68 mmHg
- SI: Stroke index [4]: 31.9 ml/HR/m²
- SPAP: Systolic pulmonary artery pressure [4]: 26 mmHg
- SV: Stroke volumes [4]: 23.6 mL/beat
- SVR: Systemic vascular resistance [4]: 1340 dynes · sec/cm⁵
- CI: Cardiac index [5]: 4.07 1/min/m²
- CO: Cardiac output [5]: 3.14 min⁻¹
- CPP: Coronary perfusion pressure [5]: 46 mmHg
- CVP: Central venous pressure [5]: 4 mmHg
- DAP: Diastolic artery pressure [5]: 53 mmHg
- DPAP: Diastolic pulmonary artery pressure [5]: 8 mmHg
- EtCO₂: Expiration terminal CO₂ pressure [5]: 30 mmHg
- HR: Heart rate [5]: 138 beat/min
- LV dp/dt max: maximum left ventricular systolic ratio [5]: 3000 mmHg/sec
- LVEP: Left ventricle end pressure [5]: 0 mmHg
- LVP: Left ventricle pressure [5]: 110 mmHg
- LVSWI: Left ventricle stroke work index [5]: 23.7 g.m/beat/m²
- MAP: Mean artery pressure [5]: 66 mmHg
- MPAP: Mean pulmonary artery pressure [5]: 15 mmHg
- PCWP: Pulmonary capillary wedge pressure [5]: 7 mmHg
- PVR: Pulmonary vascular resistance [5]: 211 dynes · sec/cm⁵
- RPP: Rate pressure products [5]: 10900 mmHg.beat/min
- RVSWI: Right ventricle stroke work index [5]: 4.42 g.m/beat/m²
- SAP: Systolic artery pressure [5]: 79 mmHg
- SI: Stroke index [5]: 29.5 ml/HR/m²
- SPAP: Systolic pulmonary artery pressure [5]: 25 mmHg
- SV: Stroke volumes [5]: 21.8 mL/beat
- SVR: Systemic vascular resistance [5]: 1640 dynes · sec/cm⁵
- CI: Cardiac index [6]: 4.14 1/min/m²
- CO: Cardiac output [6]: 3.07 min⁻¹
- CPP: Coronary perfusion pressure [6]: 54 mmHg
- CVP: Central venous pressure [6]: 6 mmHg
- DAP: Diastolic artery pressure [6]: 61 mmHg
- DPAP: Diastolic pulmonary artery pressure [6]: 8 mmHg
- EtCO₂: Expiration terminal CO₂ pressure [6]: 30 mmHg
- HR: Heart rate [6]: 134 beat/min
- LV dp/dt max: maximum left ventricular systolic ratio [6]: 3000 mmHg/sec
- LVEP: Left ventricle end pressure [6]: 0 mmHg
- LVP: Left ventricle pressure [6]: 111 mmHg
- LVSWI: Left ventricle stroke work index [6]: 31.1 g.m/beat/m²
- MAP: Mean artery pressure [6]: 95 mmHg
- MPAP: Mean pulmonary artery pressure [6]: 16 mmHg
- PCWP: Pulmonary capillary wedge pressure [6]: 7 mmHg
- PVR: Pulmonary vascular resistance [6]: 234 dynes · sec/cm⁵
- RPP: Rate pressure products [6]: 13600 mmHg.beat/min
- RVSWI: Right ventricle stroke work index [6]: 4.21 g.m/beat/m²
- SAP: Systolic artery pressure [6]: 102 mmHg
- SI: Stroke index [6]: 30.9 ml/HR/m²
- SPAP: Systolic pulmonary artery pressure [6]: 26 mmHg
- SV: Stroke volumes [6]: 22.9 mL/beat
- SVR: Systemic vascular resistance [6]: 1950 dynes · sec/cm⁵
